These results are taken from patent US12151017B2, “Compositions and methods for hair regrowth” (Nutraceutical Wellness, Inc., priority 2015, dated 2024).

For the assay, the system named is hair loss, Stage III Vertex/Stage IV MPHL. The assay can be described thus: Example 1: single subject given the components cumulatively over 7 months. It counts as in vivo, human. The conditions noted are these: taken before the implementations of the disclosure.

Description: During month 4, the subject was additionally given a daily 250 mg dose of Ashwagandha extracted from Withania somnifera, containing at least 8% withanolide glycosides and 32% oligosaccharides from the roots and leaves (Sensoril®, Natreon, New Brunswick, NJ) for stress associated with their condition and work. […] During month 5, the subject was additionally given a daily dose of Certified Organic saw palmetto extract Standardized 85-95% fatty acids (Valensa Eustis, FL) in the amount of 640 mg a day. […] During month 6, the subject added a 100 mg dose of tocotrienol/tocopherol complex comprising 78% tocotrienols and 22% tocopherols (Tocomax™ 20%, Carotech, Malaysia) a day. […] Lastly, in month 7, They were additionally given approximately 1000 mg of hydrolyzed marine collagen Types I and III (Youtheory, Tustin, CA) and 100 mg of hyaluronic acid (NOW Foods, Bloomingdale, IL).

With `O=C(O)CCCC[C@@H]1SC[C@@H]2NC(=O)N[C@@H]21` [biotin], the “hair outcome of earlier treatments (subject's history)” value was “did not result in a noticeable cessation of hair loss or new hair growth”.

In the case of `CC(C)(C)NC(=O)[C@H]1CC[C@H]2[C@@H]3CC[C@H]4NC(=O)C=C[C@]4(C)[C@H]3CC[C@]12C` [finasteride], the “hair outcome of earlier treatments (subject's history)” value is “improvement was minimal”.
